Tested on: not listed separately
Assay: Antiproliferative activity against human HBL1 cells assessed as proliferating cells at 1 uM incubated for 72 hrs by MTT assay relative to control
Assay type: functional

SMILES	Activity [%]
COc1ccc(Cn2cc3c(c2-c2cc(OC)c(OC)c(OC)c2)CCc2c(CN4CCOCC4)noc2-3)cc1	33.9
COc1ccc(Cn2cc3c(c2-c2cc(OC)c(OC)c(OC)c2)CCc2c(CO)noc2-3)cc1	80.3
COc1ccc(Cn2cc3c(c2-c2cc(OC)c(OC)c(OC)c2)CCc2c(CN4CCCC4)noc2-3)cc1	30.6
CCOC(=O)c1noc2c1CCc1c-2cn(Cc2ccc(OC)cc2)c1-c1cc(OC)c(OC)c(OC)c1	70.1

Tested on: A549
Assay: Antiproliferative activity against human A549 cells assessed as cell growth inhibition incubated for 72 hrs by MTT assay
Assay type: functional

SMILES	GI50 [nM]
COc1ccc(Cn2cc3c(c2-c2cc(OC)c(OC)c(OC)c2)CCc2c(CN4CCOCC4)noc2-3)cc1	1130
COc1ccc(Cn2cc3c(c2-c2cc(OC)c(OC)c(OC)c2)CCc2c(CO)noc2-3)cc1	420
COc1ccc(Cn2cc3c(c2-c2cc(OC)c(OC)c(OC)c2)CCc2c(CN4CCCC4)noc2-3)cc1	1330
CCOC(=O)c1noc2c1CCc1c-2cn(Cc2ccc(OC)cc2)c1-c1cc(OC)c(OC)c(OC)c1	3800

Tested on: HT-29
Assay: Antiproliferative activity against human HT-29 cells assessed as cell growth inhibition incubated for 72 hrs by MTT assay
Assay type: functional

SMILES	GI50 [nM]
COc1ccc(Cn2cc3c(c2-c2cc(OC)c(OC)c(OC)c2)CCc2c(CN4CCOCC4)noc2-3)cc1	640
COc1ccc(Cn2cc3c(c2-c2cc(OC)c(OC)c(OC)c2)CCc2c(CO)noc2-3)cc1	320
COc1ccc(Cn2cc3c(c2-c2cc(OC)c(OC)c(OC)c2)CCc2c(CN4CCCC4)noc2-3)cc1	400
CCOC(=O)c1noc2c1CCc1c-2cn(Cc2ccc(OC)cc2)c1-c1cc(OC)c(OC)c(OC)c1	850

Tested on: OVCAR-3
Assay: Antiproliferative activity against human OVCAR-3 cells assessed as cell growth inhibition incubated for 72 hrs by MTT assay
Assay type: functional

SMILES	GI50 [nM]
COc1ccc(Cn2cc3c(c2-c2cc(OC)c(OC)c(OC)c2)CCc2c(CO)noc2-3)cc1	220
CCOC(=O)c1noc2c1CCc1c-2cn(Cc2ccc(OC)cc2)c1-c1cc(OC)c(OC)c(OC)c1	370

Tested on: K562
Assay: Antiproliferative activity against human K562 cells assessed as cell growth inhibition incubated for 72 hrs by MTT assay
Assay type: functional

SMILES	GI50 [nM]
COc1ccc(Cn2cc3c(c2-c2cc(OC)c(OC)c(OC)c2)CCc2c(CN4CCOCC4)noc2-3)cc1	430
COc1ccc(Cn2cc3c(c2-c2cc(OC)c(OC)c(OC)c2)CCc2c(CN4CCCC4)noc2-3)cc1	350

Target: Tubulin
Assay: Inhibition of tubulin assembly (unknown origin)
Assay type: protein-complex assay, Homo sapiens

SMILES	IC50 [nM]
COc1ccc(Cn2cc3c(c2-c2cc(OC)c(OC)c(OC)c2)CCc2c(CN4CCOCC4)noc2-3)cc1	1000
COc1ccc(Cn2cc3c(c2-c2cc(OC)c(OC)c(OC)c2)CCc2c(CN4CCCC4)noc2-3)cc1	2800

Tested on: 786-0
Assay: Antiproliferative activity against human 786-0 cells assessed as cell growth inhibition incubated for 72 hrs by MTT assay
Assay type: functional

SMILES	GI50 [nM]
COc1ccc(Cn2cc3c(c2-c2cc(OC)c(OC)c(OC)c2)CCc2c(CN4CCOCC4)noc2-3)cc1	770
COc1ccc(Cn2cc3c(c2-c2cc(OC)c(OC)c(OC)c2)CCc2c(CO)noc2-3)cc1	360
COc1ccc(Cn2cc3c(c2-c2cc(OC)c(OC)c(OC)c2)CCc2c(CN4CCCC4)noc2-3)cc1	1000
CCOC(=O)c1noc2c1CCc1c-2cn(Cc2ccc(OC)cc2)c1-c1cc(OC)c(OC)c(OC)c1	3650

Tested on: CAKI-1
Assay: Antiproliferative activity against human CAKI-1 cells assessed as cell growth inhibition incubated for 72 hrs by MTT assay
Assay type: functional

SMILES	GI50 [nM]
COc1ccc(Cn2cc3c(c2-c2cc(OC)c(OC)c(OC)c2)CCc2c(CN4CCOCC4)noc2-3)cc1	380
COc1ccc(Cn2cc3c(c2-c2cc(OC)c(OC)c(OC)c2)CCc2c(CN4CCCC4)noc2-3)cc1	450

Tested on: NCI-H460
Assay: Antiproliferative activity against human NCI-H460 cells assessed as cell growth inhibition incubated for 72 hrs by MTT assay
Assay type: functional

SMILES	GI50 [nM]
COc1ccc(Cn2cc3c(c2-c2cc(OC)c(OC)c(OC)c2)CCc2c(CN4CCOCC4)noc2-3)cc1	520
COc1ccc(Cn2cc3c(c2-c2cc(OC)c(OC)c(OC)c2)CCc2c(CO)noc2-3)cc1	340
COc1ccc(Cn2cc3c(c2-c2cc(OC)c(OC)c(OC)c2)CCc2c(CN4CCCC4)noc2-3)cc1	570
CCOC(=O)c1noc2c1CCc1c-2cn(Cc2ccc(OC)cc2)c1-c1cc(OC)c(OC)c(OC)c1	1000

Tested on: COLO 205
Assay: Antiproliferative activity against human COLO 205 cells assessed as cell growth inhibition incubated for 72 hrs by MTT assay
Assay type: functional

SMILES	GI50 [nM]
COc1ccc(Cn2cc3c(c2-c2cc(OC)c(OC)c(OC)c2)CCc2c(CN4CCOCC4)noc2-3)cc1	590
COc1ccc(Cn2cc3c(c2-c2cc(OC)c(OC)c(OC)c2)CCc2c(CO)noc2-3)cc1	300
COc1ccc(Cn2cc3c(c2-c2cc(OC)c(OC)c(OC)c2)CCc2c(CN4CCCC4)noc2-3)cc1	940
CCOC(=O)c1noc2c1CCc1c-2cn(Cc2ccc(OC)cc2)c1-c1cc(OC)c(OC)c(OC)c1	1770

Tested on: NCI-H226
Assay: Antiproliferative activity against human NCI-H226 cells assessed as cell growth inhibition incubated for 72 hrs by MTT assay
Assay type: functional

SMILES	GI50 [nM]
COc1ccc(Cn2cc3c(c2-c2cc(OC)c(OC)c(OC)c2)CCc2c(CN4CCOCC4)noc2-3)cc1	890
COc1ccc(Cn2cc3c(c2-c2cc(OC)c(OC)c(OC)c2)CCc2c(CO)noc2-3)cc1	15000
COc1ccc(Cn2cc3c(c2-c2cc(OC)c(OC)c(OC)c2)CCc2c(CN4CCCC4)noc2-3)cc1	2070
CCOC(=O)c1noc2c1CCc1c-2cn(Cc2ccc(OC)cc2)c1-c1cc(OC)c(OC)c(OC)c1	> 100000

Tested on: Hs-578T
Assay: Antiproliferative activity against human Hs-578T cells assessed as cell growth inhibition incubated for 72 hrs by MTT assay
Assay type: functional

SMILES	GI50 [nM]
COc1ccc(Cn2cc3c(c2-c2cc(OC)c(OC)c(OC)c2)CCc2c(CN4CCOCC4)noc2-3)cc1	500
COc1ccc(Cn2cc3c(c2-c2cc(OC)c(OC)c(OC)c2)CCc2c(CO)noc2-3)cc1	410
COc1ccc(Cn2cc3c(c2-c2cc(OC)c(OC)c(OC)c2)CCc2c(CN4CCCC4)noc2-3)cc1	1800
CCOC(=O)c1noc2c1CCc1c-2cn(Cc2ccc(OC)cc2)c1-c1cc(OC)c(OC)c(OC)c1	2990

Tested on: LOX IMVI
Assay: Antiproliferative activity against human LOX IMVI cells assessed as cell growth inhibition incubated for 72 hrs by MTT assay
Assay type: functional

SMILES	GI50 [nM]
COc1ccc(Cn2cc3c(c2-c2cc(OC)c(OC)c(OC)c2)CCc2c(CN4CCOCC4)noc2-3)cc1	620
COc1ccc(Cn2cc3c(c2-c2cc(OC)c(OC)c(OC)c2)CCc2c(CO)noc2-3)cc1	570
CCOC(=O)c1noc2c1CCc1c-2cn(Cc2ccc(OC)cc2)c1-c1cc(OC)c(OC)c(OC)c1	650

Tested on: KM12
Assay: Antiproliferative activity against human KM12 cells assessed as cell growth inhibition incubated for 72 hrs by MTT assay
Assay type: functional

SMILES	GI50 [nM]
COc1ccc(Cn2cc3c(c2-c2cc(OC)c(OC)c(OC)c2)CCc2c(CN4CCOCC4)noc2-3)cc1	400
COc1ccc(Cn2cc3c(c2-c2cc(OC)c(OC)c(OC)c2)CCc2c(CO)noc2-3)cc1	270
COc1ccc(Cn2cc3c(c2-c2cc(OC)c(OC)c(OC)c2)CCc2c(CN4CCCC4)noc2-3)cc1	12600
CCOC(=O)c1noc2c1CCc1c-2cn(Cc2ccc(OC)cc2)c1-c1cc(OC)c(OC)c(OC)c1	910

Tested on: UACC-62
Assay: Antiproliferative activity against human UACC-62 cells assessed as cell growth inhibition incubated for 72 hrs by MTT assay
Assay type: functional

SMILES	GI50 [nM]
COc1ccc(Cn2cc3c(c2-c2cc(OC)c(OC)c(OC)c2)CCc2c(CN4CCOCC4)noc2-3)cc1	610
COc1ccc(Cn2cc3c(c2-c2cc(OC)c(OC)c(OC)c2)CCc2c(CO)noc2-3)cc1	250
COc1ccc(Cn2cc3c(c2-c2cc(OC)c(OC)c(OC)c2)CCc2c(CN4CCCC4)noc2-3)cc1	550
CCOC(=O)c1noc2c1CCc1c-2cn(Cc2ccc(OC)cc2)c1-c1cc(OC)c(OC)c(OC)c1	2740

Target: Tubulin (Homo sapiens) (UniProt P68371+Q9H4B7+P0DPH7+P68366+Q13509+Q71U36+P04350+Q3ZCM7+P07437+P68363+Q9BQE3+Q6PEY2+Q13885+Q9BVA1+Q9BUF5)
Assay: Inhibition of [3H]Colchicine binding to tubulin (unknown origin) at 5 uM relative to control
Assay type: protein-complex assay

SMILES	inhibition [%]
COc1ccc(Cn2cc3c(c2-c2cc(OC)c(OC)c(OC)c2)CCc2c(CN4CCOCC4)noc2-3)cc1	33
COc1ccc(Cn2cc3c(c2-c2cc(OC)c(OC)c(OC)c2)CCc2c(CN4CCCC4)noc2-3)cc1	24

Tested on: NCI-H322M
Assay: Antiproliferative activity against human NCI-H322M cells assessed as cell growth inhibition incubated for 72 hrs by MTT assay
Assay type: functional

SMILES	GI50 [nM]
COc1ccc(Cn2cc3c(c2-c2cc(OC)c(OC)c(OC)c2)CCc2c(CO)noc2-3)cc1	640
COc1ccc(Cn2cc3c(c2-c2cc(OC)c(OC)c(OC)c2)CCc2c(CN4CCCC4)noc2-3)cc1	5550
CCOC(=O)c1noc2c1CCc1c-2cn(Cc2ccc(OC)cc2)c1-c1cc(OC)c(OC)c(OC)c1	5460

Tested on: HOP-92
Assay: Antiproliferative activity against human HOP-92 cells assessed as cell growth inhibition incubated for 72 hrs by MTT assay
Assay type: functional

SMILES	GI50 [nM]
COc1ccc(Cn2cc3c(c2-c2cc(OC)c(OC)c(OC)c2)CCc2c(CN4CCOCC4)noc2-3)cc1	900
COc1ccc(Cn2cc3c(c2-c2cc(OC)c(OC)c(OC)c2)CCc2c(CO)noc2-3)cc1	3390
COc1ccc(Cn2cc3c(c2-c2cc(OC)c(OC)c(OC)c2)CCc2c(CN4CCCC4)noc2-3)cc1	1350
CCOC(=O)c1noc2c1CCc1c-2cn(Cc2ccc(OC)cc2)c1-c1cc(OC)c(OC)c(OC)c1	2720

Tested on: UACC-257
Assay: Antiproliferative activity against human UACC-257 cells assessed as cell growth inhibition incubated for 72 hrs by MTT assay
Assay type: functional

SMILES	GI50 [nM]
COc1ccc(Cn2cc3c(c2-c2cc(OC)c(OC)c(OC)c2)CCc2c(CN4CCOCC4)noc2-3)cc1	1000
COc1ccc(Cn2cc3c(c2-c2cc(OC)c(OC)c(OC)c2)CCc2c(CO)noc2-3)cc1	14700
COc1ccc(Cn2cc3c(c2-c2cc(OC)c(OC)c(OC)c2)CCc2c(CN4CCCC4)noc2-3)cc1	17000
CCOC(=O)c1noc2c1CCc1c-2cn(Cc2ccc(OC)cc2)c1-c1cc(OC)c(OC)c(OC)c1	85800

Tested on: MDA-MB-468
Assay: Antiproliferative activity against human MDA-MB-468 cells assessed as cell growth inhibition incubated for 72 hrs by MTT assay
Assay type: functional

SMILES	GI50 [nM]
COc1ccc(Cn2cc3c(c2-c2cc(OC)c(OC)c(OC)c2)CCc2c(CN4CCOCC4)noc2-3)cc1	340
COc1ccc(Cn2cc3c(c2-c2cc(OC)c(OC)c(OC)c2)CCc2c(CO)noc2-3)cc1	330
COc1ccc(Cn2cc3c(c2-c2cc(OC)c(OC)c(OC)c2)CCc2c(CN4CCCC4)noc2-3)cc1	280
CCOC(=O)c1noc2c1CCc1c-2cn(Cc2ccc(OC)cc2)c1-c1cc(OC)c(OC)c(OC)c1	5620

Tested on: SF-268
Assay: Antiproliferative activity against human SF-268 cells assessed as cell growth inhibition incubated for 72 hrs by MTT assay
Assay type: functional

SMILES	GI50 [nM]
COc1ccc(Cn2cc3c(c2-c2cc(OC)c(OC)c(OC)c2)CCc2c(CN4CCOCC4)noc2-3)cc1	780
COc1ccc(Cn2cc3c(c2-c2cc(OC)c(OC)c(OC)c2)CCc2c(CO)noc2-3)cc1	1060
COc1ccc(Cn2cc3c(c2-c2cc(OC)c(OC)c(OC)c2)CCc2c(CN4CCCC4)noc2-3)cc1	3150
CCOC(=O)c1noc2c1CCc1c-2cn(Cc2ccc(OC)cc2)c1-c1cc(OC)c(OC)c(OC)c1	8070

Tested on: not listed separately
Assay: Antiproliferative activity against human MINO cells assessed as proliferating cells at 1 uM incubated for 72 hrs by MTT assay relative to control
Assay type: functional

SMILES	Activity [%]
COc1ccc(Cn2cc3c(c2-c2cc(OC)c(OC)c(OC)c2)CCc2c(CN4CCOCC4)noc2-3)cc1	5.3
COc1ccc(Cn2cc3c(c2-c2cc(OC)c(OC)c(OC)c2)CCc2c(CO)noc2-3)cc1	82.1
COc1ccc(Cn2cc3c(c2-c2cc(OC)c(OC)c(OC)c2)CCc2c(CN4CCCC4)noc2-3)cc1	8.7
CCOC(=O)c1noc2c1CCc1c-2cn(Cc2ccc(OC)cc2)c1-c1cc(OC)c(OC)c(OC)c1	41.3

Tested on: MCF7
Assay: Cytotoxicity against human MCF7 cells assessed as cell growth inhibition
Assay type: functional, cell-based

SMILES	IC50 [nM]
COc1ccc(Cn2cc3c(c2-c2cc(OC)c(OC)c(OC)c2)CCc2c(CN4CCOCC4)noc2-3)cc1	470
COc1ccc(Cn2cc3c(c2-c2cc(OC)c(OC)c(OC)c2)CCc2c(CN4CCCC4)noc2-3)cc1	1100
